Patent publication US4847302A, “Use of certain compounds in livestock food as growth promotants for better feed utilization and improved carcass composition” (Merck & Co., Inc., priority 1988, dated 1989)
Like-named read-outs stand apart in the source and are kept apart here.

Experiments:
[1] = Growth promoting activity / feed utilization in livestock (general statements); type: in vivo
[2] = test system: Isolated Chicken Hepatocytes; assay: Inhibition of lipogenesis (14C acetate incorporation) in isolated chicken hepatocytes; type: cell-based; settings: for inhibition at 0.01 µM / inhibition at 0.05 µM / inhibition at 0.25 µM: Gallus gallus, Hepatocyte, 2 h, read-out: percent change compared to control, 14C acetate incorporation in fatty acids; for percent change compared to control, 14C acetate incorporation in fatty acids: 120 min
Experimental: Determination of anti-lipogenic activity in hepatocytes
Hepatocytes were isolated from chicken liver using the procedure for adipocytes and incubated for 2 hours at 37° C. in the presence of ^14 C acetate and test compounds. […] Isoproterenol, at the same concentrations, was used as a positive control. After incubation, 8 ml Doles reagent (isopropanol:hexane:H2 SO4, 40:10:1) was added and incubation vials were shaken at room temperature for 30 minutes. Vial contents were poured into 50 ml screw-cap tubes. Vials were then rinsed with 6 ml hexane which was poured into the appropriate 50 ml tube. Tubes were shaken by hand, 10 ml H2 O was added, and tubes were shaken again. After phase separation, 2 ml of the upper (hexane) phase was removed to scintillation vials. Hexane was evaporated by a gentle air flow and the remaining lipids were resuspended in 10 ml Scinti Verse II. ^14 C was counted in a Packard liquid scintillation counter. Data are reported as CPM of ^14 C acetate incorporated into total lipids.

[3] = test system: Isolated Swine Adipocytes; assay: Stimulation of lipolysis (glycerol production) in isolated swine adipocytes; type: cell-based; settings: for activation at 0.01 µM / activation at 0.05 µM / activation at 0.25 µM: Sus scrofa, Adipocyte, 2 h, read-out: percent increase compared to control, glycerol production
Experimental: (§1) Fat was collected from freshly killed animals as follows: epididymal and perirenal fat from 150 to 200 g male rates; perirenal fat from 20 to 25 kg whether lambs, and perirenal and omental fat from 35 to 50 kg gilts. Immediately after collection, fat was placed in a siliconized beaker (all glassware was siliconized) containing Krebs-Ringer bicarbonate solution (KRB; pH 7.4) at 37° C. Fat was transferred to a clean beaker and finely chopped with scissors. Chopped fat was then used as such (whole adipose preparation) or treated with collagenase (isolated adipocytes).
(§2) Chopped fat was placed in a shaker containing 70 ml cell dispersion medium (CDM; 5 mM glucose, 0.1% collagenase, 4% bovine serum albumin (BSA), in KRB) and incubated at 37° C. for 1 hour with gentle shaking. Fat was then filtered to remove clumps and washed 4 times with washing medium (WM; 2.5 mM glucose, 1% BSA, in KRB) and 1 time with final suspension medium (FSM; 2.5 mM glucose, 2% essentially fatty acid free BSA, in KRB). Isolated adipocytes were then resuspended in the required amount of FSM (1 ml/flask, 3 flasks/treatment).
(§3) Whole adipose tissue from the rat (0.3 ml) or isolated adipocytes from sheep or swine (1 ml) were placed in plastic scintillation vials containing FSM (1.7 or 1 ml, respectively) and test compounds, and incubated at 37° C. for 2 hours. […] Isoproterenol, at the same concentrations, was used as a positive control. After incubation, media was removed and assayed for glycerol by a fluorometric modification of the method of Wieland (1974. Glycerol UV-method. pp. 1404. In: Bergmeyer (Ed.) Methods of Enzymatic Analysis. Verlag Chemie Weinham, Academic Press, New York).

[4] = test system: Isolated Ovine Adipocytes; assay: Stimulation of lipolysis (glycerol production) in isolated ovine adipocytes; type: cell-based, sheep; settings: for activation at 0.01 µM / activation at 0.05 µM / activation at 0.25 µM: Ovis aries, Adipocyte, 2 h, read-out: percent increase compared to control, glycerol production
Experimental: as §1, §2, §3

[5] = test system: Rat Adipose Tissue; assay: Stimulation of lipolysis (glycerol production) in chopped rat adipose tissue; type: cell-based; settings: for activation at 0.01 µM / activation at 0.05 µM / activation at 0.25 µM: Rattus norvegicus, 2 h, read-out: percent increase compared to control, glycerol production
Experimental: as §1
as §3, with “York). […]” for “York).”

[6] = In vivo testing in rats: growth, feed conversion and carcass composition; design: species or system rat (male Charles River CD); settings: in diet, dose equivalent to 20 ppm clenbuterol (clenbuterol: 10)
From the text: Eighty intact, male Charles River CD rats, 75-90 g, were housed and maintained on rat chow and water ad libitum. After four days acclimation ten rats per group were randomized by weight to treatment and pen. Compounds to be tested were premixed and added to ground rat chow using doses equivalent to 20 ppm of clenbuterol on a molecular weight basis. It had previously been determined 10 ppm of clenbuterol was the minimum dose needed to give maximum improvements in gain and feed conversion. Therefore, the results of any compound tested should cause responses similar to clenbuterol if the compound has half or more the activity of clenbuterol.

## CC(C)(C)NCC(O)c1ccc(O)c(O)c1 (stereo not drawn) [Compound X, Colterol]
[1]; administered orally
  growth promoting activity, oral: very little activity
[1]; administered parenterally
  growth promoting activity, parenteral: substantially active

## COc1ccc(CNc2cc(C(O)CNC(C)(C)C)ccc2O)cc1 (stereo not drawn) [III]
[2]; Test 1, 0.01 μM
  inhibition at 0.01 µM: 9.5%
[2]; Test 1, 0.05 μM
  inhibition at 0.05 µM: 35.5%
[2]; Test 1, 0.25 μM
  inhibition at 0.25 µM: 54.4%
[3]; Test 1, 0.01 μM
  activation at 0.01 µM: 20%
[3]; Test 1, 0.05 μM
  activation at 0.05 µM: 33%
[3]; Test 1, 0.25 μM
  activation at 0.25 µM: 53%
[4]; Test 1, 0.01 μM
  activation at 0.01 µM: 465%
[4]; Test 1, 0.05 μM
  activation at 0.05 µM: 845%
[5]; Test 1, 0.01 μM
  activation at 0.01 µM: 194%
[5]; Test 1, 0.05 μM
  activation at 0.05 µM: 203%
[5]; Test 1, 0.25 μM
  activation at 0.25 µM: 334%
[6]; Test 1, control 7.3
  Gain: 8.0 g/day
[6]; Test 1, control 18.6
  Feed Intake: 19.4 g/day
[6]; Test 1, control 191.8
  Weight: 201.7 g
[6]; Test 1
  Carcass Composition % of Change over Control, Fat: -7.0%
  Carcass Composition % of Change over Control, Protein: 6.1%

## CC(C)(C)NCC(O)c1cc(Br)no1 (stereo not drawn) [II]
[2]; Test 1, 0.01 μM
  inhibition at 0.01 µM: 0%
[2]; Test 1, 0.05 μM
  inhibition at 0.05 µM: 0%
[2]; Test 1, 0.25 μM
  inhibition at 0.25 µM: 7.9%
[3]; Test 1, 0.01 μM
  activation at 0.01 µM: 27%
[3]; Test 1, 0.05 μM
  activation at 0.05 µM: -7%
[3]; Test 1, 0.25 μM
  activation at 0.25 µM: -40%
[4]; Test 1, 0.25 μM
  activation at 0.25 µM: 325%
[4]; Test 1, 0.05 μM
  percent increase compared to control, glycerol production: inactive
[5]; Test 1, 0.01 μM
  activation at 0.01 µM: 51%
[5]; Test 1, 0.05 μM
  activation at 0.05 µM: 15%
[5]; Test 1, 0.25 μM
  activation at 0.25 µM: 35%
[6]; Test 2, control 7.5
  Gain: 8.4 g/day
[6]; Test 2, control 19.3
  Feed Intake: 21.1 g/day
[6]; Test 2, control 202.3
  Weight: 215.9 g
[6]; Test 2
  Carcass Composition % of Change over Control, Fat: -9.3%
  Carcass Composition % of Change over Control, Protein: 3.8%

## CC(C)NCC(O)c1ccc(O)c(O)c1 (stereo not drawn) [Isoproterenol]
[2]; Test 1, 0.01 μM
  inhibition at 0.01 µM: 29.1%
[2]; Test 1, 0.05 μM
  inhibition at 0.05 µM: 48.6%
[2]; Test 1, 0.25 μM
  inhibition at 0.25 µM: 70.3%
[2]; Test 2, 0.01 μM
  inhibition at 0.01 µM: 21%
[2]; Test 2, 0.05 μM
  inhibition at 0.05 µM: 15%
[2]; Test 2, 0.25 μM
  inhibition at 0.25 µM: 49%
[3]; Test 1, 0.01 μM
  activation at 0.01 µM: 40%
[3]; Test 1, 0.05 μM
  activation at 0.05 µM: 140%
[3]; Test 1, 0.25 μM
  activation at 0.25 µM: 660%
[3]; Test 2, 0.01 μM
  activation at 0.01 µM: 175%
[3]; Test 2, 0.05 μM
  activation at 0.05 µM: 196%
[3]; Test 2, 0.25 μM
  activation at 0.25 µM: 820%
[4]; Test 1, 0.01 μM
  activation at 0.01 µM: 670%
[4]; Test 2, 0.01 μM
  activation at 0.01 µM: 600%
[5]; Test 1, 0.01 μM
  activation at 0.01 µM: 45%
[5]; Test 1, 0.05 μM
  activation at 0.05 µM: 173%
[5]; Test 1, 0.25 μM
  activation at 0.25 µM: 290%
[5]; Test 2, 0.01 μM
  activation at 0.01 µM: 49%
[5]; Test 2, 0.05 μM
  activation at 0.05 µM: 154%
[5]; Test 2, 0.25 μM
  activation at 0.25 µM: 216%

## Cn1c(=O)c2c(ncn2CCCNCC(O)c2cc(O)cc(O)c2)n(C)c1=O (stereo not drawn) [VI, Reproterol]
[2]; Test 1, 0.01 μM
  inhibition at 0.01 µM: 0%
[2]; Test 1, 0.05 μM
  inhibition at 0.05 µM: 0%
[2]; Test 1, 0.25 μM
  inhibition at 0.25 µM: 8.6%
[2]; Test 2, 0.01 μM
  inhibition at 0.01 µM: -3%
[2]; Test 2, 0.05 μM
  inhibition at 0.05 µM: 12%
[2]; Test 2, 0.25 μM
  inhibition at 0.25 µM: 25%
[3]; Test 1, 0.01 μM
  activation at 0.01 µM: 20%
[3]; Test 1, 0.05 μM
  activation at 0.05 µM: -7%
[3]; Test 1, 0.25 μM
  activation at 0.25 µM: 0%
[3]; Test 2, 0.01 μM
  activation at 0.01 µM: 8%
[3]; Test 2, 0.05 μM
  activation at 0.05 µM: 21%
[3]; Test 2, 0.25 μM
  activation at 0.25 µM: 3%
[4]; Test 1, 0.05 μM
  activation at 0.05 µM: 130%
[4]; Test 1, 0.25 μM
  activation at 0.25 µM: 465%
[4]; Test 2, 0.01 μM
  activation at 0.01 µM: -14%
[4]; Test 2, 0.05 μM
  activation at 0.05 µM: 129%
[4]; Test 2, 0.25 μM
  activation at 0.25 µM: 700%
[5]; Test 1, 0.01 μM
  activation at 0.01 µM: 63%
[5]; Test 1, 0.05 μM
  activation at 0.05 µM: 86%
[5]; Test 1, 0.25 μM
  activation at 0.25 µM: 86%
[5]; Test 2, 0.01 μM
  activation at 0.01 µM: 13%
[5]; Test 2, 0.05 μM
  activation at 0.05 µM: 16%
[5]; Test 2, 0.25 μM
  activation at 0.25 µM: 13%
[6]; Test 2, control 7.5
  Gain: 8.3 g/day
[6]; Test 2, control 19.3
  Feed Intake: 21.2 g/day
[6]; Test 2, control 202.3
  Weight: 213.4 g
[6]; Test 2
  Carcass Composition % of Change over Control, Fat: 2.5%
  Carcass Composition % of Change over Control, Protein: 0.5%

## CC(C)(C)NCC(O)c1ccc(O)c(CO)n1 (stereo not drawn) [VII, Pirbuterol]
[6]; Test 1, control 7.3
  Gain: 8.0 g/day
[6]; Test 1, control 18.6
  Feed Intake: 19.8 g/day
[6]; Test 1, control 191.8
  Weight: 200.9 g
[6]; Test 1
  Carcass Composition % of Change over Control, Fat: -8.7%
  Carcass Composition % of Change over Control, Protein: 3.6%

## CC(C)N[C@H]1CCc2c(ccc(O)c2CO)[C@@H]1O.Cl [VIII]
[2]; Test 2, 0.01 μM
  percent change compared to control, 14C acetate incorporation in fatty acids: 26%
[2]; Test 2, 0.05 μM
  percent change compared to control, 14C acetate incorporation in fatty acids: -9%
[2]; Test 2, 0.25 μM
  percent change compared to control, 14C acetate incorporation in fatty acids: -34%
[3]; Test 1, 0.01 μM
  percent increase compared to control, glycerol production: 13%
[3]; Test 1, 0.05 μM
  percent increase compared to control, glycerol production: 147%
[3]; Test 1, 0.25 μM
  percent increase compared to control, glycerol production: 180%
[3]; Test 2, 0.01 μM
  percent increase compared to control, glycerol production: 61%
[3]; Test 2, 0.05 μM
  percent increase compared to control, glycerol production: 59%
[3]; Test 2, 0.25 μM
  percent increase compared to control, glycerol production: 460%
[4]; Test 1, 0.01 μM
  percent increase compared to control, glycerol production: 135%
[4]; Test 1, 0.05 μM
  percent increase compared to control, glycerol production: 445%
[4]; Test 1, 0.25 μM
  percent increase compared to control, glycerol production: 565%
[4]; Test 2, 0.01 μM
  percent increase compared to control, glycerol production: 71%
[4]; Test 2, 0.05 μM
  percent increase compared to control, glycerol production: 1143%
[4]; Test 2, 0.25 μM
  percent increase compared to control, glycerol production: 1800%
[5]; Test 1, 0.01 μM
  percent increase compared to control, glycerol production: 19%
[5]; Test 1, 0.05 μM
  percent increase compared to control, glycerol production: 26%
[5]; Test 1, 0.25 μM
  percent increase compared to control, glycerol production: 21%
[5]; Test 2, 0.01 μM
  percent increase compared to control, glycerol production: -7%
[5]; Test 2, 0.05 μM
  percent increase compared to control, glycerol production: 4%
[5]; Test 2, 0.25 μM
  percent increase compared to control, glycerol production: 7%
[6]; Test 1, control 2.55
  Feed Conversion: 2.41
[6]; Test 1, control 7.3
  Gain: 8.1 g/day
[6]; Test 1, control 18.6
  Feed Intake: 19.5 g/day
[6]; Test 1, control 191.8
  Weight: 202.6 g
[6]; Test 1
  Carcass Composition % of Change over Control, Fat: -6.1%
  Carcass Composition % of Change over Control, Protein: 6.4%
